Measurements reported in patent US10414797B2, “Gelatinase inhibitors and use thereof” (Iproteos S.L, priority 2015, dated 2019).
pIC50: −log10 of the molar value. Where a SMILES comes first, the peptide text is derived from it. [ ]: non-standard residue; d: D form. The star is where a group is joined. ξ: configuration not given here. Pro(trans-4-F) = O=C(O)[C@@H]1C[C@@H](F)CN1; Benzoyl(3,5-F2) = O=C(c1cc(F)cc(F)c1)*; NMeIle(3ξ) = CCC(C)[C@H](NC)C(=O)O; NMeF = CN[C@@H](Cc1ccccc1)C(=O)O; NMeA = CN[C@@H](C)C(=O)O; Dab = NCC[C@H](N)C(=O)O; Hexanoyl = CCCCCC(=O)*; Bz = O=C(c1ccccc1)*; NHOH = ON*

Legend:
Type in all cases: biochemical
MMP-9 = MMP-9 (Homo sapiens, UniProt P14780); test: MMP-9 inhibition assay (fluorimetric, DQ gelatin substrate); conditions: recombinant MMP-9 (Merck-Millipore for examples 1 to 9 and comparative examples; Enzo for examples 10 to 16), DQ gelatin 50 μg/mL, 4 hours at room temperature, pH 7.6
Method: (§1) All the experiments were done in 1× reaction buffer, which was obtained from a 10× reaction buffer solution. The content of the 10× reaction buffer was: 50 mL of 0.5 M Tris-HCl, 1.5 M NaCl, 50 mM CaCl2 and 2 mM sodium azide at pH 7.6. To obtain the 1× reaction buffer 4 mL of the 10× reaction buffer were diluted in 36 mL of H2O.
Recombinant MMP-9 expressed was obtained from Merck-Millipore (catalog number PF140-5UG, used in examples 1 to 9 and comparative examples) and Enzo (catalog number-SE360-0010, used in examples 10 to 16). DQ gelatin from pig skin fluorescein conjugated (MMP-9 substrate) was obtained from Life Technologies (catalog number E12055).
Preparation of the MMP-9 for the activity assay: MMP-9 was provided as a stock solution (0.1 mg/mL). The enzyme was diluted in 1× reaction buffer to a final concentration of 5 μg/mL.
(§2) Preparation of the DQ gelatin (substrate) solution for the activity assay: the solid form of the substrate was dissolved in water in order to obtain a stock solution of 1 mg/mL.
(§3) Procedure: The enzymatic assays were performed in 96-well microtiter plate, which allowed simultaneous monitoring of multiple reactions. For each reaction, 84.6 μL of 1× reaction buffer (pH 7.6), 3.4 μL of MMP-9 (final concentration 85 ng/mL) and 2 μL of the corresponding new compound were added to each well. A stock solution of new compound was prepared in DMSO (100 mM), and dilutions were prepared from this stock solution with DMSO. Finally, to the mixture contained in each well 10 μL of the substrate were added (final concentration 50 μg/mL). The reaction was incubated for 4 hours at room temperature in an orbital shaker (100 rpm).
(§4) The inhibitory activity of the new compound was measured fluorimetrically. The excitation and emission wavelengths were 483 and 525 nm, respectively.
(§5) Inhibitory activity at several concentration points (ranging from 100 pM to 200 μM MMP) were measured for each compound. The inhibitory activity on MMP-2 and MMP-9 was calculated according to eq 1. For each new compound, the fluorescence in the presence (a) and in the absence (b) of the corresponding MMP was measured. The maximum fluorescence (0% inhibitory activity) was obtained from a sample of the corresponding MMP in the absence of inhibitory compounds. To estimate the inhibitory potency of the novel compounds, activities were plotted against the log concentration of the compound, adjusting to a sigmoid curve using GraphPad Prism software, and the IC50 value, defined as the concentration of compound required to inhibit 50% of the corresponding MMP activity, was determined from resulting curve.
(§6) a corresponds to fluorescence intensity in the presence of substrate+test compound+MMP
(§7) b corresponds to the fluorescence intensity in the presence of substrate+tested compound
(§8) c corresponds to the fluorescence intensity in the presence of substrate+MMP
(§9) d corresponds to the fluorescence intensity of the presence of substrate

MMP-7 = MMP-7 (Homo sapiens (Human), UniProt P09237); test: MMP-7 inhibition assay (fluorogenic peptide substrate); conditions: recombinant MMP-7 8.3 nM, Mca-PLGL-Dpa-AR-NH2 10 μM, 4 hours at room temperature; tested at 1, 10, 100 and 200 μM
Method: as §1
Recombinant MMP-7 expressed in E. Coli was obtained from Merck-Millipore (catalog number 44270). Mca-PLGL-Dpa-AR-NH2 (fluorogenic peptide substrate) was obtained from R&D Systems (catalog number ES001).
Preparation of the MMP-7 for the activity assay: MMP-7 was provided as a stock solution (2.1 mg/mL). The enzyme was diluted in water to a final concentration of 0.005 mg/mL.
MMP-7 peptide substrate was provided as a solid (1 mg). A 4 mM stock solution of the substrate in DMSO was obtained by adding 214.7 μL of DMSO. After which, a 100 μM solution of substrate was prepared in 1× reaction buffer.
as §3, with “of MMP-7” for “of MMP-9”, “concentration 8.3 nM)” for “concentration 85 ng/mL)”, “concentration 10 μM).” for “concentration 50 μg/mL).”, “shaker (90” for “shaker (100”
The inhibitory activity of the new compound was measured fluorimetrically. The excitation and emission wavelengths were 320 and 405 nm, respectively.
Inhibitory activity at several concentration points (1, 10, 100 and 200 μM) were measured for each compound. The inhibitory activity on MMP-1, MMP-3 and MMP-7 was calculated according to eq 1 and The IC50 value was calculated as explained above for MMP-2 and MMP-9.

MMP-2 = MMP-2 (Homo sapiens (Human), UniProt P08253); test: MMP-2 inhibition assay (fluorimetric, DQ gelatin substrate); conditions: recombinant MMP-2 (CHO cells) 85 ng/mL, DQ gelatin 50 μg/mL, 2 hours at room temperature, pH 7.6
Method: as §1
Recombinant MMP-2 expressed in Chinese hamster ovary (CHO) cells was obtained from Merck-Millipore (catalog number PF023-5UG). DQ gelatin from pig skin fluorescein conjugated (MMP-2 substrate) was obtained from Life Technologies (catalog number E12055).
Preparation of the MMP-2 for the activity assay: MMP-2 was provided as a stock solution (0.1 mg/mL). The enzyme was diluted in 1× reaction buffer to a final concentration of 5 μg/mL.
as §2
as §3, with “86.3” for “84.6”, “1.7” for “3.4”, “MMP-2” for “MMP-9”, “2” for “4”
as §4, §5, §6, §7, §8, §9

Chain of MMP-9 (P14780 107-707 limits assumed): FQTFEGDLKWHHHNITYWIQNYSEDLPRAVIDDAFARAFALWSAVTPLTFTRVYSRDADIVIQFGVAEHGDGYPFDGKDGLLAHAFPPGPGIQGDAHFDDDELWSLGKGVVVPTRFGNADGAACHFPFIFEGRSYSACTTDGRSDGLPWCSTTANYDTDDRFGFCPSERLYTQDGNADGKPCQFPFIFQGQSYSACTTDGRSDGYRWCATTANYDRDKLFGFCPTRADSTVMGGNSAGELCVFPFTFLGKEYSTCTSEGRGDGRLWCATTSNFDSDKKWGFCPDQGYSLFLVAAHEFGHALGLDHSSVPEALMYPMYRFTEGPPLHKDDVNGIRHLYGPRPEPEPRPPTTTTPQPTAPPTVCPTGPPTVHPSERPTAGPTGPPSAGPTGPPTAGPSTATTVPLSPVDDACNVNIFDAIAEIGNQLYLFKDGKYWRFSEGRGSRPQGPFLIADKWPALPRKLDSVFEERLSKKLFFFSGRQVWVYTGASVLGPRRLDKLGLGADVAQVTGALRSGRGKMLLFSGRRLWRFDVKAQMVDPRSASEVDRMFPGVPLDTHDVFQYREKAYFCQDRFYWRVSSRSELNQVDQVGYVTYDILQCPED
Chain of MMP-2 (P08253 110-660): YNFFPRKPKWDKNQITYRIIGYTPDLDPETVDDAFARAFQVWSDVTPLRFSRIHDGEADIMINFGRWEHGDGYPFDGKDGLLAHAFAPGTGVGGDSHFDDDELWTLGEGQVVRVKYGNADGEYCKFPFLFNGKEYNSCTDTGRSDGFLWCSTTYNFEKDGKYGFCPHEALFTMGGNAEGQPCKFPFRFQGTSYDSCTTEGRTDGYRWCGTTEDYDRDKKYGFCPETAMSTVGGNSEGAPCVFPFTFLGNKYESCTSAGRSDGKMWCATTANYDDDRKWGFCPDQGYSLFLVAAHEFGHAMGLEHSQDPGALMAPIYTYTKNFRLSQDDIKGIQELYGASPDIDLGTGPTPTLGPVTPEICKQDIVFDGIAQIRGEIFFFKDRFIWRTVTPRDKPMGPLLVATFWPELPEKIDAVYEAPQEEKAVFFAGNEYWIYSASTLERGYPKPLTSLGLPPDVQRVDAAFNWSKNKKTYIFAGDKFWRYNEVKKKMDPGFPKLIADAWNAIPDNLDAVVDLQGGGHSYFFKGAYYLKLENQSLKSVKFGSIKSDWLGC
Chain of MMP-7 (P09237 95-267): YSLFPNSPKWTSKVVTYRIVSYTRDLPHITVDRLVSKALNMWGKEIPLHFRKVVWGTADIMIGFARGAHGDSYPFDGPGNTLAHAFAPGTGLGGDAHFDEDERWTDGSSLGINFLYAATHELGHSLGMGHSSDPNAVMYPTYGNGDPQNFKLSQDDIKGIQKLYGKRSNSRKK

SMILES | pIC50 (MMP-9) | pIC50 (MMP-7) | pIC50 (MMP-2)
CCCCCC(=O)N1CC(F)(F)C[C@H]1C(=O)N(C)[C@H](C(=O)N[C@@H](CCNC(=O)c1cc(F)cc(F)c1)C(=O)NO)C(C)CC (stereo partly drawn) [Example 7, (2S)—N-[(1S)-1-[[(1S)-3-[(3,5-difluorobenzoyl)amino]-1-(hydroxycarbamoyl)propyl]carbamoyl]-2-methyl-butyl]-4,4-difluoro-1-hexanoyl-N-methyl-pyrrolidine-2-carboxamide] | 6.15 | 5.11 | 6.80
CCCC(CCC)C(=O)N1CCC[C@H]1C(=O)N(C)[C@H](C(=O)N[C@@H](CCNC(=O)c1cc(F)cc(F)c1)C(=O)NO)C(C)CC (stereo partly drawn) [Example 8, (2S)—N-[(1S)-1-[[(1S)-3-[(3,5-difluorobenzoyl)amino]-1-(hydroxycarbamoyl)propyl]carbamoyl]-2-methyl-butyl]-N-methyl-1-(2-propylpentanoyl)pyrrolidine-2-carboxamide] | 6.58 | 5.39 | 6.01
CCC(C)[C@@H](C(=O)N[C@@H](CCNC(=O)c1cc(F)cc(F)c1)C(=O)NO)N(C)C(=O)[C@@H]1CCCN1C(=O)[C@H](Cc1ccccc1)N(C)C(C)=O (stereo partly drawn) [Example 11, (2 S)-1-[(2S)-2-[acetyl(methyl)amino]-3-phenyl-propanoyl]-N-[(1S)-1-[[(1S)-3-[(3,5-difluorobenzoyl)amino]-1-(hydroxycarbamoyl)propyl]carbamoyl]-2-methyl-butyl]-N-methyl-pyrrolidine-2-carboxamide] (Ac-[NMeF]P[NMeIle(3ξ)][Dab](Benzoyl(3,5-F2))-{NHOH}) | 7.15 | 4.70 | 6.76
CCC(C)[C@@H](C(=O)N[C@@H](CCNC(=O)c1cc(F)cc(F)c1)C(=O)NO)N(C)C(=O)[C@@H]1CCCN1C(=O)[C@H](C)N(C)C(C)=O (stereo partly drawn) [Example 12, (2 S)-1-[(2S)-2-[acetyl(methyl)amino]propanoyl]-N-[(1S)-1-[[(1S)-3-[(3,5-difluorobenzoyl)amino]-1-(hydroxycarbamoyl)propyl]carbamoyl]-2-methyl-butyl]-N-methyl-pyrrolidine-2-carboxamide] (Ac-[NMeA]P[NMeIle(3ξ)][Dab](Benzoyl(3,5-F2))-{NHOH}) | 6.87 | 4.85 | 7.68
CCCCCC(=O)N1CCC[C@H]1C(=O)N(C)[C@H](C(=O)N[C@@H](CCNC(=O)c1ccccc1)C(=O)NO)C(C)CC (stereo partly drawn) [Example 15, (2S)—N-[(1S)-1-[[(1S)-3-benzamido-1-(hydroxycarbamoyl)propyl]carbamoyl]-2-methyl-butyl]-N-methyl-1-hexanoyl-pyrrolidine-2-carboxamide] (Hexanoyl-Pro-[NMeIle(3ξ)]-[Dab](Bz)-{NHOH}) | 6.15 | 4.39 | 6.55
CCCCCC(=O)N1C[C@H](F)C[C@H]1C(=O)N(C)[C@H](C(=O)N[C@@H](CCNC(=O)c1ccccc1)C(=O)NO)C(C)CC (stereo partly drawn) [Example 16, (2S,4R)—N-[(1S)-1-[[(1S)-3-benzamido-1-(hydroxycarbamoyl)propyl]carbamoyl]-2-methyl-butyl]-4-fluoro-N-methyl-1-hexanoyl-pyrrolidine-2-carboxamide] (Hexanoyl-[Pro(trans-4-F)]-[NMeIle(3ξ)]-[Dab](Bz)-{NHOH}) | 8.00 | 6.00 | > 9.00
